Assay [1] deals with T1, Polyunsaturated fatty acid 5-lipoxygenase (Homo sapiens, UniProt P09917).
T1 sequence (P09917 whole entry): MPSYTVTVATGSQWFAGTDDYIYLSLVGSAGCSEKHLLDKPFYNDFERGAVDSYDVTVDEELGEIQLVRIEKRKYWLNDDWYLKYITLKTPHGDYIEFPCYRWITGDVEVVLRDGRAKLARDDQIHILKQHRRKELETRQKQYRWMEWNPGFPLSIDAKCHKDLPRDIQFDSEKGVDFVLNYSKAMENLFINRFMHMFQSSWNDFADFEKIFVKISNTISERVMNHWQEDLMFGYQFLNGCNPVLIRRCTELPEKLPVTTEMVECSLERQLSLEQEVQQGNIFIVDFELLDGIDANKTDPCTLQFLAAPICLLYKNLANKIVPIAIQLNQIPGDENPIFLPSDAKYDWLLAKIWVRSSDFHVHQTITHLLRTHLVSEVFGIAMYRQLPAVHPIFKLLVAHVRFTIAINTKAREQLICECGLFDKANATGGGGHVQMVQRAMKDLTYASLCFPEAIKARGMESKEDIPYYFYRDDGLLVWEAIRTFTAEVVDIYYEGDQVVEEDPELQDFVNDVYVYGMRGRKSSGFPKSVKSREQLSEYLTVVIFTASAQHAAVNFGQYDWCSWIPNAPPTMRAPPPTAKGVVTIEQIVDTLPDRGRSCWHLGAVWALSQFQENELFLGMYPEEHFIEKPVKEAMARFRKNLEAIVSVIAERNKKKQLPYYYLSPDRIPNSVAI
Description: Compound was evaluated for in vitro inhibition of recombinant human 5-lipoxygenase (5-LO).

The nature of assay [2]: Compound was evaluated for in vitro inhibition of leukotriene (LTB4) in human peripheral blood polymorphonuclear leukocytes (HPMN). It counts as functional.
Assay [3] is filed under the species Homo sapiens. Description: Compound was evaluated for in vitro inhibition of leukotriene (LTB4) in human whole blood (HWB). It counts as functional.
Assay [4] relates to Rattus norvegicus. Description: The effect on the biosynthesis of leukotriene B4 in vivo was evaluated in the rat pleural cavity using a carrageenan-induced model of inflammation after oral administration at 6 hr. Type of assay: functional.

The IC50 is the concentration at which inhibition is half-maximal. As a reminder, the ED50 is the midpoint of the dose-response relation. Low readings indicate an effect at a small dose, high ones a need for a large dose.

On to `N#Cc1cc(-c2ccoc2)c2ccc(OCc3cccc(C4(O)CC5COC(C4)O5)c3)cc2n1` (stereo not given), for which the IC50 in assay [1] is above 3000 nM; in assay [2], 10 nM; in assay [3] it was 287 nM.
`OC1(c2cccc(COc3ccc4c(-c5ccoc5)cncc4c3)n2)CC2COC(C1)O2` (stereo not given): the results for the IC50 in assay [1], in assay [2] and in assay [3] were 1460 nM, 10.3 nM and 90 nM, respectively.
For `N#Cc1cc(-c2ccoc2)c2ccc(OCc3cccc(C4(O)CC5COC(C4)O5)n3)cc2n1` (stereo not given) the same measures were 36 nM, 4 nM and 103 nM.
Compound `N#Cc1cc(-c2ccoc2)c2ccc(COc3cc(F)cc(C4(O)CC5COC(C4)O5)c3)cc2n1` (stereo not given) came in with an ED50 in assay [4] below 0.1 mg/kg.
Consider `O=c1cc(-c2ccoc2)c2ccc(OCc3cccc(C4(O)CC5COC(C4)O5)n3)cc2n1Cc1ccccc1` (stereo not given), for which the IC50 in assay [1] was 102 nM; in assay [2], 5.8 nM; in assay [3], 160 nM.
`N#Cc1cc(-c2ccoc2)c2ccc(OCc3cccc(C4(O)CC5COC(C4)O5)n3)cc2c1` (stereo not given) registered an IC50 in assay [2] of 1.6 nM.
Consider `N#Cc1cc(-c2ccoc2)c2ccc(CSc3cc(F)cc(C4(O)CC5COC(C4)O5)c3)cc2n1` (stereo not given), for which the values for the IC50 in assay [1], in assay [2] and in assay [3] were 124 nM, 6 nM and 193 nM, respectively.
For `N#Cc1cc2cc(OCc3cccc(C4(O)CC5COC(C4)O5)n3)ccc2c(-c2ccoc2)n1` (stereo not given) the same measures were 1960 nM, 18 nM and 47 nM.

(Values after ChEMBL document CHEMBL1131285, “Quinolines as potent 5-lipoxygenase inhibitors: synthesis and biological profile of L-746,530” (Bioorg Med Chem Lett, 1998).)
